According to ChEMBL document CHEMBL1150994, “The chemical synthesis of large random peptide libraries and their use for the discovery of ligands for macromolecular acceptors” (Bioorg Med Chem Lett, 1993):
Calls of active or inactive are those of the source. The rule behind the calls is not given here. Where a SMILES comes first, the peptide text is derived from it. [ ]: non-standard residue; d: D form. βAla = NCCC(=O)O

Columns and labels:
[1] = tested on: Monoclonal antibody (mAb) 3E7; assay: Affinity of compound towards anti-beta-endorphin MAb(Clone 3-E7) using [3H]-[Leu5]-enkephalin as labeled ligand
[2] = tested on: Monoclonal antibody (mAb) 3E7; assay: Affinity towards anti-beta-endorphin MAb(Clone 3-E7) using [3H][Leu5]-enkephalin as labeled ligand
[3] = tested on: Monoclonal antibody (mAb) 3E7; assay: Affinity towards anti-beta-endorphin MAb(Clone 3-E7) using [3H][Leu5]-enkephalin as labeled ligand at 10 uM concentration; not active

Compound | EC50 [1] [nM] | IC50 [2] [nM] | Activity [3]
CSCC[C@H](NC(=O)[C@@H]1CCCN1C(=O)[C@H](C)NC(=O)CNC(=O)[C@@H](N)Cc1ccc(O)cc1)C(=O)O (H-YGAPM-OH) | 52 |  | 
CSCC[C@H](NC(=O)CNC(=O)CNC(=O)[C@@H](N)Cc1ccc(O)cc1)C(=O)N[C@H](C(=O)O)C(C)C (H-YGGMV-OH) |  | 8780 | inactive
C[C@H](NC(=O)[C@H](Cc1ccccc1)NC(=O)CNC(=O)CNC(=O)[C@@H](N)Cc1ccc(O)cc1)C(=O)O (H-YGGFA-OH) |  | 32.9 | inactive
C[C@@H](O)[C@H](NC(=O)[C@H](Cc1ccccc1)NC(=O)CNC(=O)CNC(=O)[C@@H](N)Cc1ccc(O)cc1)C(=O)O (H-YGGFT-OH) |  | 36.9 | inactive
CC(C)C[C@H](NC(=O)CNC(=O)CNC(=O)[C@@H](N)Cc1ccc(O)cc1)C(=O)N[C@@H](CO)C(=O)O (H-YGGLS-OH) |  | 726 | inactive
NC(=O)CCNC(=O)[C@H](CCC(N)=O)NC(=O)[C@H](Cc1ccccc1)NC(=O)CNC(=O)CNC(=O)[C@@H](N)Cc1ccccc1 (H-FGGFQ[βAla]-NH2) |  | 45.4 | 
NC(=O)CC[C@H](NC(=O)[C@H](Cc1ccccc1)NC(=O)CNC(=O)CNC(=O)[C@@H](N)Cc1ccccc1)C(=O)NCCC(=O)O (H-FGGFQ[βAla]-OH) |  | 39.4 | 
CC(C)C[C@H](NC(=O)[C@H](C)NC(=O)CNC(=O)[C@@H](N)Cc1ccc(O)cc1)C(=O)N[C@@H](CCC(N)=O)C(=O)O (H-YGALQ-OH) |  | 1980 | inactive
C[C@@H](O)[C@H](NC(=O)[C@H](Cc1ccccc1)NC(=O)CNC(=O)CNC(=O)[C@@H](N)Cc1ccc(O)cc1)C(N)=O (H-YGGFT-NH2) |  | 65.2 | 
C[C@H](NC(=O)[C@H](Cc1ccccc1)NC(=O)CNC(=O)CNC(=O)[C@@H](N)Cc1ccc(O)cc1)C(=O)NCCC(=O)O (H-YGGFA[βAla]-OH) |  | 82.3 | 
